Measured values reported in patent US9988379B2, “GPR40 receptor agonist, methods of preparing the same, and pharmaceutical compositions containing the same as an active agent” (LG CHEM, LTD., priority 2012, dated 2018).

Target: T1, human GPR40 (Homo sapiens, UniProt O14842)
T1 construct: expressed in transfected cells; host or cells: CHO-K1
Test: Induction of Ca2+ (calcium flux assay) using human GPR40 expression cell line
Type: cell-based
Details: read-out: EC0.5
Procedure, shortened: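 CHO-K1 cells stably transfected with human GPR40, plated 24 h, loaded 1 h at 37° C with Calcium 5 dye in HBSS/HEPES pH 7.4. Intracellular calcium change after compound addition read on FlexStation; concentration–response of relative activity used to derive EC0.5.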

T1 sequence (O14842 whole entry): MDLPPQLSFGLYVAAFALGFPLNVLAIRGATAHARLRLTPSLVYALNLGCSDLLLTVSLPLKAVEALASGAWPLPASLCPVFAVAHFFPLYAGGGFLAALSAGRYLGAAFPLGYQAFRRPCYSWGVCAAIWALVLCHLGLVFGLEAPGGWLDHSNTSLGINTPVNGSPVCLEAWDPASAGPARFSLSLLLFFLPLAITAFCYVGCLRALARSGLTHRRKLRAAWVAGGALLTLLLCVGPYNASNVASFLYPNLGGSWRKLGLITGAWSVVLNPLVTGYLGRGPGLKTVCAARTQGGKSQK

Row | EC50 | Structure (SMILES)
1 | 50 nM | O=C(O)C[C@@H](c1ccc(OCc2ccc3cnn(CC4CC4)c3c2)cc1)c1ccon1 [Example 97, (S)-3-[4-(1-cyclopropylmethyl-1H-indazol-6-ylmethoxy)-phenyl]-3-isoxazol-3-yl-propanoic acid]
2 | 1 to 50 nM | CC(C)Cn1ccc2ccc(COc3ccc([C@H](CC(=O)O)c4ccon4)cc3)nc21 [Example 98, (S)-3-[4-(1-isobutyl-1H-pyrrolo[2,3-b]pyridin-6-ylmethoxy)-phenyl]-3-isoxazol-3-yl-propanoic acid]
3 | 1300 nM | CC(C)n1cc2ccc(COc3ccc([C@H](CC(=O)O)c4ccon4)cc3)cc2n1 [Example 99, (S)-3-[4-(2-isopropyl-2H-indazol-6-ylmethoxy)-phenyl]-3-isoxazol-3-yl-propanoic acid]
4 | 600 nM | CC(C)n1ncc2ccc(COc3ccc4c(c3)OCC4CC(=O)O)cc21 (centres unmarked) [Example 100, [6-(1-isopropyl-1H-indazol-6-ylmethoxy)-2,3-dihydro-benzofuran-3-yl]-acetic acid]
5 | 90 nM | Cn1ncc2ccc(COc3ccc([C@H](CC(=O)O)c4ccon4)cc3)cc21 [Example 101, (S)-3-isoxazol-3-yl-3-[4-(1-methyl-1H-indazol-6-ylmethoxy)-phenyl]-propanoic acid]
6 | 400 nM | O=C(O)C[C@@H](c1ccc(OCc2ccc3cn[nH]c3c2)cc1)c1ccon1 [Example 102, (S)-3-[4-(1H-indazol-6-ylmethoxy)-phenyl]-3-isoxazol-3-yl-propanoic acid]
7 | 10 nM | O=C(O)C[C@@H](c1ccc(OCc2ccc3cnn(CC4CCCC4)c3c2)cc1)c1ccon1 [Example 103, (S)-3-[4-(1-cyclopentylmethyl-1H-indazol-6-ylmethoxy)-phenyl]-3-isoxazol-3-yl-propanoic acid]
8 | 400 nM | O=C(O)CC1COc2cc(OCc3ccc4cnn(Cc5ccccc5)c4c3)ccc21 (centres unmarked) [Example 105, [6-(1-benzyl-1H-indazol-6-ylmethoxy)-2,3-dihydro-benzofuran-3-yl]-acetic acid]
9 | 1 to 50 nM | O=C(O)CCc1ccc(OCc2ccc3cnn(Cc4ccccc4)c3c2)cc1F [Example 106, 3-[4-(1-benzyl-1H-indazol-6-ylmethoxy)-2-fluoro-phenyl]-propanoic acid]
10 | 200 nM | O=C(O)CCc1ccc(OCc2ccc3cnn(CC4CCCC4)c3c2)cc1F [Example 107, 3-[4-(1-cyclopentylmethyl-1H-indazol-6-ylmethoxy)-2-fluoro-phenyl]-propanoic acid]
11 | 400 nM | O=C(O)CC1CCc2cc(OCc3ccc4cnn(Cc5ccccc5)c4c3)ccc21 (centres unmarked) [Example 109, [5-(1-benzyl-1H-indazol-6-ylmethoxy)-indan-1-yl]-acetic acid]
12 | 200 nM | O=C(O)CC1CCCc2cc(OCc3ccc4cnn(Cc5ccccc5)c4c3)ccc21 (centres unmarked) [Example 110, [6-(1-benzyl-1H-indazol-6-ylmethoxy)-1,2,3,4-tetrahydro-naphthalen-1-yl]-acetic acid]
13 | 1 to 50 nM | CC#C[C@@H](CC(=O)O)c1ccc(OCc2ccc3c(cnn3Cc3ccccc3)c2)cc1 [Example 111, (S)-3-[4-(1-benzyl-1H-indazol-5-ylmethoxy)-phenyl]-hex-4-ynoic acid]
14 | 1 to 50 nM | CC#C[C@@H](CC(=O)O)c1ccc(OCc2ccc3nn(Cc4ccccc4)cc3c2)cc1 [Example 112, (S)-3-[4-(2-benzyl-2H-indazol-5-ylmethoxy)-phenyl]-hex-4-ynoic acid]
15 | 9100 nM | O=C(O)CC1COc2cc(OCc3ccc4cn(Cc5ccccc5)nc4c3)ccc21 (centres unmarked) [Example 113, [6-(2-benzyl-2H-indazol-6-ylmethoxy)-2,3-dihydro-benzofuran-3-yl]-acetic acid]
16 | 1 to 50 nM | CC#C[C@@H](CC(=O)O)c1ccc(OCc2ccc3cnn(CC(C)C)c3c2)cc1 [Example 114, (S)-3-[4-(1-isobutyl-1H-indazol-6-ylmethoxy)-phenyl]-hex-4-ynoic acid]
17 | 1 to 50 nM | CC#C[C@@H](CC(=O)O)c1ccc(OCc2ccc3ccn(CC(C)C)c3n2)cc1 [Example 115, (S)-3-[4-(1-isobutyl-1H-pyrrolo[2,3-b]pyridin-6-ylmethoxy)-phenyl]-hex-4-ynoic acid]
